Earlier results, collected in patent US6767915B2, “Substituted piperidines as melanocortin receptor agonists” (Merck & Co., Inc., priority 2000, dated 2004).

Assays:
[1] = system: erectile dysfunction; details: for duration of effect / onset of action: after an oral dose; for share of men/patients with adequate response: oral
[2] = system: psychogenic erectile dysfunction
[3] = in vivo, po

Molecule	duration of effect [1]	onset of action [1] [min]	share of men/patients with adequate response [1]	response rate ([2]; injected intramuscularly or subcutaneously, males with psychogenic erectile dysfunction) [%]	duration of action ([2]; subcutaneous injection)	time to onset of erection ([2]; subcutaneous injection) [min]	absorption into the systemic circulation [3]
Cc1ccc(N(CC2=NCCN2)c2cccc(O)c2)cc1 [phentolamine]	2 h	5 to 30	35-40%	–	–	–	–
CCCc1nn(C)c2c(=O)[nH]c(-c3cc(S(=O)(=O)N4CCN(C)CC4)ccc3OCC)nc12 [sildenafil]	about 4 hours	30 to 60	about 70%	–	–	–	–
Ac-Nle-c[Asp-His-DPhe-Arg-Trp-Lys]-NH2 [MT-II]	–	–	–	75	approximately 2.5 hours	10 to 20	not absorbed into the systemic circulation
